Results from the supplement of paper PMC10307832.

Legend:
Assay in all cases: relative viability (nuclei count vs DMSO), 5 days (fraction); higher = more cells survive
NCI-H1993 = tested on: NCI-H1993
Outline: (§1)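 One day after seeding in 1536-well plates, lung cancer cell lines were dosed by pin tool. Dosing was either single-drug or a fixed anchor-drug dose plus five library-drug doses (not always all listed) in √10 steps. After 5 days, nuclei were stained in one fix-and-stain step and counted on 4× images, and relative viability is the nuclei count of treated wells over that of vehicle wells, given as the median of duplicate plates.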

COR-L23 = tested on: COR-L23
Outline: as §1

NCI-H1793 = tested on: NCI-H1793
Outline: as §1

NCI-H1355 = tested on: NCI-H1355
Outline: as §1

NCI-H838 = tested on: NCI-H838
Outline: as §1

UMC-11 = tested on: UMC-11
Outline: as §1

COR-L 105 = tested on: COR-L 105
Outline: as §1

SK-MES-1 = tested on: SK-MES-1
Outline: as §1

NCI-H2009 = tested on: NCI-H2009
Outline: as §1

NCI-H358 = tested on: NCI-H358
Outline: as §1

EKVX = tested on: EKVX
Outline: as §1

HOP-62 = tested on: HOP-62
Outline: as §1

## O=C(O)c1ccc(-c2c[nH]c3ncc(-c4ccccc4)cc23)cc1C1CCCC1 + CCNC(=O)c1noc(-c2cc(C(C)C)c(O)cc2O)c1-c1ccc(CN2CCOCC2)cc1 [Luminespib] (partner 0.01 µM)
NCI-H1993; first compound 0.04 µM
  relative viability: 0.912
NCI-H1993; first compound 0.1265 µM
  relative viability: 0.831
NCI-H1993; first compound 0.4 µM
  relative viability: 0.795
NCI-H1993; first compound 1.265 µM
  relative viability: 0.612
COR-L23; first compound 0.04 µM
  relative viability: 0.656
COR-L23; first compound 0.1265 µM
  relative viability: 0.742
COR-L23; first compound 0.4 µM
  relative viability: 0.612
COR-L23; first compound 1.265 µM
  relative viability: 0.407
NCI-H1793; first compound 0.04 µM
  relative viability: 0.19
NCI-H1793; first compound 0.1265 µM
  relative viability: 0.166
NCI-H1793; first compound 0.4 µM
  relative viability: 0.151
NCI-H1793; first compound 1.265 µM
  relative viability: 0.148
NCI-H1355; first compound 0.04 µM
  relative viability: 0.692
NCI-H1355; first compound 0.1265 µM
  relative viability: 0.622
NCI-H1355; first compound 0.4 µM
  relative viability: 0.464
NCI-H1355; first compound 1.265 µM
  relative viability: 0.384
NCI-H838; first compound 0.04 µM
  relative viability: 0.315
NCI-H838; first compound 0.1265 µM
  relative viability: 0.266
NCI-H838; first compound 0.4 µM
  relative viability: 0.26
NCI-H838; first compound 1.265 µM
  relative viability: 0.287
UMC-11; first compound 0.04 µM
  relative viability: 0.919
UMC-11; first compound 0.1265 µM
  relative viability: 1.05
UMC-11; first compound 0.4 µM
  relative viability: 0.974
UMC-11; first compound 1.265 µM
  relative viability: 0.738
COR-L 105; first compound 0.04 µM
  relative viability: 0.933
COR-L 105; first compound 0.1265 µM
  relative viability: 0.76
COR-L 105; first compound 0.4 µM
  relative viability: 0.762
COR-L 105; first compound 1.265 µM
  relative viability: 0.773
SK-MES-1; first compound 0.04 µM
  relative viability: 0.81
SK-MES-1; first compound 0.1265 µM
  relative viability: 0.973
SK-MES-1; first compound 0.4 µM
  relative viability: 0.596
SK-MES-1; first compound 1.265 µM
  relative viability: 0.35
NCI-H2009; first compound 0.04 µM
  relative viability: 1.05
NCI-H2009; first compound 0.1265 µM
  relative viability: 1.03
NCI-H2009; first compound 0.4 µM
  relative viability: 0.963
NCI-H2009; first compound 1.265 µM
  relative viability: 0.75
NCI-H358; first compound 0.04 µM
  relative viability: 0.45
NCI-H358; first compound 0.1265 µM
  relative viability: 0.192
NCI-H358; first compound 0.4 µM
  relative viability: 0.249
NCI-H358; first compound 1.265 µM
  relative viability: 0.165
EKVX; first compound 0.04 µM
  relative viability: 0.885
EKVX; first compound 0.1265 µM
  relative viability: 0.92
EKVX; first compound 0.4 µM
  relative viability: 0.931
EKVX; first compound 1.265 µM
  relative viability: 0.615
HOP-62; first compound 0.04 µM
  relative viability: 0.989
HOP-62; first compound 0.1265 µM
  relative viability: 0.997
